pIC50: −log10 of the molar value.
Key:
Test in all cases: MTT proliferation assay, single agent
Assay type in all cases: cell-based
H3122 = conditions: Homo sapiens, NCI-H3122, Lung ADC, ALK-EML4 (v1), 72 h, mean of several independent experiments
Method: (§1) The compound of formula (1) was tested using a Thiazolyl Blue Tetrazolium Bromide (MTT) proliferation assay in a panel of tumor cell lines of different origins.
(§2) All culture materials were obtained from Biological Industries (Kibbutz Beit Haemek, Israel) or Invitrogen (Paisley, Scotland, United Kingdom). The non-tumor cell lines HF and HACAT were provided by Vall d'Hebrón Hospital and GmbH, respectively. The PC9 naïve cell line was provided by Mayumi Ono and, the H3122, HCC78 and 11-18 by Daniel Costa. The PC9-GR1, PC9-GR2, PC9-GR3, PC9-GR4, PC9-GR5 and PC9-ER cell lines were derived in house by exposing the parental PC9 cell line to increasing concentrations of erlotinib (ER) or gefitinib (GR). The rest of the cell lines in which compound (1) was tested were purchased from ATCC (H23, H1975, H2228, A549, H460, Calu-6, H1650, SK-MES-1, EBC1, SNU1, AGS, N87, PC3, BxPC3, DLD1, HT29, SW48, SCC9,FaDu, AU565, Gingival, Prostate, SU-DHL-1 and A431). All cell lines were maintained in RPMI medium supplemented with 10% FBS, 50 µg/mL penicillin-streptomycin and 2 mM L-Glutamine. All cells were grown in a humidified atmosphere with 5% CO2 at 37°C.
(§3) Cell viability in response to single agent treatment was assessed by the Thiazolyl Blue Tetrazolium Bromide (MTT) (Sigma, St Louis, MO) assay. Cells from each cell line were seeded at 2000 to 10000 per well in 96-well plates. […] After treatment, cells were incubated with medium containing MTT (0.75 mg/mL in medium) for 1-2 h at 37°C. Culture medium with MTT was removed and formazan crystals reabsorbed in 100 µL DMSO (Sigma, St. Louis, MO). Cell viability was determined by measuring the absorbance at 492 nm, using a microplate reader (BioWhittaker, Walkersville, MD).
(§4) The IC50s shown are the mean of several independent experiments. Standard errors are also listed Table 2. SCC means squamous cell carcinoma, ADC means adenocarcinoma, GBM means glioblastoma.

HCC78 = conditions: Homo sapiens, Lung ADC, ROS1-SLC34A2, 72 h, mean of several independent experiments
Method: as §1, §2, §3, §4

H1703 = conditions: Homo sapiens, NCI-H1703, SCC Lung, DDR2 wt, 72 h, mean of several independent experiments
Method: as §1, §2, §3, §4

435S = conditions: Melanoma (melanocyte), BRAF V600E, 72 h, mean of several independent experiments
Method: as §1, §2, §3, §4

H11-18 = conditions: Lung ADC, EGFR ex21, 72 h, mean of several independent experiments
Method: as §1, §2, §3, §4

U118MG = conditions: Homo sapiens, U-118-MG, GBM, ROS1-FIG, 72 h, mean of several independent experiments
Method: as §1, §2, §3, §4

H2286 = conditions: Homo sapiens, NCI-H2286, SCC Lung, DDR2 mutated, 72 h, mean of several independent experiments
Method: as §1, §2, §3, §4

A549 = conditions: Homo sapiens, Lung ADC, KRAS, 72 h, mean of several independent experiments
Method: as §1, §2, §3, §4

H1975 = conditions: Homo sapiens, NCI-H1975, Lung ADC, EGFR ex21, 72 h, mean of several independent experiments
Method: as §1, §2, §3, §4

I638F+T654M = conditions: SCC Lung, DDR2 mutated, 72 h, mean of several independent experiments
Method: as §1, §2, §3, §4

BxPC3 = conditions: Homo sapiens, BXPC-3, Pancreas, mut TP53, 72 h, mean of several independent experiments
Method: as §1, §2, §3, §4

PC9-GR2 = conditions: Lung ADC, EGFR ex19, 72 h, mean of several independent experiments
Method: as §1, §2, §3, §4

PC9-GR5 = conditions: Lung ADC, EGFR ex19, 72 h, mean of several independent experiments
Method: as §1, §2, §3, §4

H1650 = conditions: Homo sapiens, NCI-H1650, Lung ADC, EGFR ex19, 72 h, mean of several independent experiments
Method: as §1, §2, §3, §4

I638F = conditions: SCC Lung, DDR2 mutated, 72 h, mean of several independent experiments
Method: as §1, §2, §3, §4

EBC-1 = conditions: Homo sapiens, SCC Lung, c-Met ampl, 72 h, mean of several independent experiments
Method: as §1, §2, §3, §4

pIC50 (H3122): 5.87 | pIC50 (HCC78): 6.04 | pIC50 (H1703): 6.26 | pIC50 (H2286): 7.30 | pIC50 (A549): 6.31 | pIC50 (H1975): 5.68 | pIC50 (BxPC3): 5.74 | pIC50 (PC9-GR2): 5.67 | pIC50 (PC9-GR5): 5.79 | pIC50 (H1650): 5.57
Structure (SMILES): Cn1c(=O)c(-c2c(Cl)cccc2Cl)cc2c(N)nc(Nc3ccccc3)nc21 [Compound (1), 4-amino-6-(2,6-dichlorophenyl)-8-methyl-2-(phenylamino)-pyrido[2,3-d]pyrimidin-7(8H)-one]
pIC50 (435S): 6.00 | pIC50 (H11-18): 5.31 | pIC50 (U118MG): 5.59 | pIC50 (I638F+T654M): 6.11 | pIC50 (I638F): 7.00 | pIC50 (EBC-1): 5.29

Reference: EP3120851A1, “4-AMINO-6-(2,6-DICHLOROPHENYL)-8-METHYL-2-(PHENYLAMINO)-PYRIDO[2,3-D]PYRIMIDIN-7(8H)-ONE FOR TREATMENT OF SOLID CANCERS” (Pangaea Biotech S.L., priority 2015, dated 2017)
